Usually IC50 stands for the midpoint of a concentration-inhibition curve.

This is an account of results in patent publication US20240116921A1, “LACTAM (HETERO)[…] DERIVATIVES AS INHIBITORS OF ERBB2” (EnLiven Therapeutics, Inc., priority 2020, published 2024).

Some results are limits rather than exact numbers.

In test [1] the target is T1, phosphorylated EGFR (pEGFR) (Homo sapiens, UniProt P00533).
T1 construct: performed to measure phosphorylated EGFR levels using A431 cells (10% FBS); endogenous in cells; host or cells: A431
The test is described as follows: Detection of phosphorylated EGFR (pEGFR) in EGF-stimulated A431 cells. The format is cell-based. To be noted: A431 cells (10% FBS), 4 hours incubation, EGF 30 ng/mL 10 minutes, AlphaLISA. How it is done: Enzyme-linked immunosorbent assays (ELISA) were performed to measure phosphorylated EGFR levels using A431 cells (10% FBS). A431 (1.0*10^4 cells/40 μl/well) cells were seeded in 384 well. Compounds were dissolved in DMSO, serially diluted in DMSO and then were added, mixed, and incubated for 4 hours at 37° C., 5% CO2. Following the 4-hours incubation, cells were stimulated for 10 minutes with EGF (Invitrogen, cat #PHG0311) at a final concentration of 30 ng/mL in the incubator. The media was aspirated and cells were lysed in 10 μL lysis buffer with protease and phosphatase inhibitors (PerkinElmer, cat #ALSU-PEGFR-A50K). The plates were placed on a shaker for 5 minutes and then incubated for 30 min at 4° C. for complete lysis. The lysate was transferred to an Optiplate (Perkin Elmer, cat #6007290).
Acceptor mix (PerkinElmer, cat #ALSU-PEGFR-A50K) was prepared just before use and 5 μL was dispensed to all the wells, followed by a 1.5-2 h incubation at room temperature in dark. The donor mix (PerkinElmer, cat #ALSU-PEGFR-A50K) was prepared under low light conditions prior to use and […] of donor mix was added to all the wells under subdued lighting or green filters. The plates were placed on a shaker for 5 min, sealed, and incubated overnight at room temperature in dark. Plates were read on the Envision (PerkinElmer) using standard AlphaLISA settings.
The percentage of inhibition on EGFR phosphorylation was calculated following equation: % Inhibition=100×(LumHC−LumSample)/(LumHC−LumLC). The low and high controls (LC/HC) are generated from lysate from wells with cells treated with DMSO or […] Staurosporine (BioAustralis, cat #BIA-S1086), […]. IC50 values were calculated by fitting the Curve using XLfit (v5.3.1.3), equation 201: Y=Bottom+(Top−Bottom)/(1+10^((Log IC50−X)*HillSlope)).
For orientation: In Alpha technology, singlet oxygen from a donor bead excites a nearby acceptor bead.

In test [2] the target is Ba/F3 ERBB2 A775_G776insYVMA (Homo sapiens, UniProt P04626, DUP772-775, cells depend on it). The experiment in a line: Cell viability assay, Ba/F3 ERBB2 A775_G776insYVMA. The test is classed as cell-based, mouse. As to conditions: Ba/F3 ERBB2 YVMA cells, cell viability, 72 hours, CellTiter Glo; Table B5; read-out: Ba/F3 ERBB2 YVMA, IC50. How it is done: Cells were treated with compounds, and cell viability was measured as a metric of kinase inhibition.
The Ba/F3 cell line is IL-3-dependent mouse cell line derived from the C3H mouse strain. Ba/F3 cell lines were engineered to express human ERBB2 or EGFR kinases, rendering the cells IL-3 independent. The lines were generated via retroviral transduction utilizing a Moloney murine leukemia virus (MMLV) promoter, and constructs are stably integrated into the cell genome. The sequences of the ERBB2 and EGFR genes used were NCBI Reference Sequences NM_004448.3 and NM_005228.3, respectively.
Similarly, Ba/F3 cell lines engineered to express EGFR, ERBB2, or ERBB2 mutants were grown, harvested, counted and seeded at 3000 cells per well in 96-well plates. A subset of wells contained media only (low control, “LC”).
Table B1 provides the growth media and number of cells seeded per well for the each cell line.
Plates were placed in a 37° C., 5% CO2 incubator for 72 hours. Plates were then removed from the incubator and equilibrated for 15 minutes at room temperature. 40 μl of CellTiter Glo reagent (Promega) was added to measure the relative level of metabolically active cells by quantifying intracellular ATP concentrations. Plates were incubated for 30 minutes at room temperature, and luminescence was measured. […] Graphical curves were fitted using a nonlinear regression model with a sigmoidal dose response.
In general terms: ATP-based viability assays read luminescence as a measure of living cells.

Test [3] addresses T2, phosphorylated ERBB2 (pERBB2) (Homo sapiens, UniProt P04626).
T2 construct: endogenous in cells; host or cells: BT-474
The test is described as follows: Detection of phosphorylated ERBB2 (pERBB2) by ELISA in BT-474 cells. The test is classed as cell-based. As to conditions: four hours incubation. How it is done:
BT-474 cells were seeded into a 96-well at 2.0*10^4 cells/100 μl/well.
Compounds were dissolved and serially diluted in DMSO. The compounds were then were added, mixed, and incubated for four hours at 37° C., 5% CO2. Compounds were added using four-fold dilutions at final concentrations ranging from 10 μM to 0.01 nM.
Following the four hour incubation with compounds, cell lysates were prepared.
Plates were centrifuged for 5 min at 3000 RPM, and supernatant was removed from each well. Cells were washed 3 times by resuspension in 150 μl PBS, followed by centrifugation and removal of the supernatant, as above. […] Cells were incubated with lysis buffer for 1 hour at 4° C., and then stored at −80° C.
Enzyme-linked immunosorbent assays (ELISA) were performed to measure phosphorylated ERBB2 levels. […] The next day, plates were washed with PBS+0.05% Tween20 (PBST). 150 μl of 5% BSA blocking solution was added for 1 hour at room temperature, with shaking. Plates were washed with PBST. Cell lysates were thawed and 100 μl of lysate was added to the ELISA plate. The plates were incubated for 2 hours at room temperature, with shaking. […] Plates were incubated for 1 hour at room temperature, with shaking. Plates were then washed with PBST, and 100 μl TMB substrate solution (R&D Systems, cat #DY999) was added. Plate were incubated in the dark for 20 minutes at room temperature. 50 μl of Stop solution (R&D Systems, cat #DY994) (50 μl) was added to each well and mixed.
Optical density at 450 nm was read on an EnSpire plate reader (Perkin Elmer). The remaining kinase activity by calculated using the following formula: % Relative activity=100×(A450sample−A450LC)/(A450HC−A450LC). The low and high control values (“LC” and “HC”) were generated from lysate from wells without cells or with cells treated with 0.1% DMSO, respectively.
(In general: ELISA stands for enzyme-linked immunosorbent assay.)

T1 sequence (P00533 25-1210): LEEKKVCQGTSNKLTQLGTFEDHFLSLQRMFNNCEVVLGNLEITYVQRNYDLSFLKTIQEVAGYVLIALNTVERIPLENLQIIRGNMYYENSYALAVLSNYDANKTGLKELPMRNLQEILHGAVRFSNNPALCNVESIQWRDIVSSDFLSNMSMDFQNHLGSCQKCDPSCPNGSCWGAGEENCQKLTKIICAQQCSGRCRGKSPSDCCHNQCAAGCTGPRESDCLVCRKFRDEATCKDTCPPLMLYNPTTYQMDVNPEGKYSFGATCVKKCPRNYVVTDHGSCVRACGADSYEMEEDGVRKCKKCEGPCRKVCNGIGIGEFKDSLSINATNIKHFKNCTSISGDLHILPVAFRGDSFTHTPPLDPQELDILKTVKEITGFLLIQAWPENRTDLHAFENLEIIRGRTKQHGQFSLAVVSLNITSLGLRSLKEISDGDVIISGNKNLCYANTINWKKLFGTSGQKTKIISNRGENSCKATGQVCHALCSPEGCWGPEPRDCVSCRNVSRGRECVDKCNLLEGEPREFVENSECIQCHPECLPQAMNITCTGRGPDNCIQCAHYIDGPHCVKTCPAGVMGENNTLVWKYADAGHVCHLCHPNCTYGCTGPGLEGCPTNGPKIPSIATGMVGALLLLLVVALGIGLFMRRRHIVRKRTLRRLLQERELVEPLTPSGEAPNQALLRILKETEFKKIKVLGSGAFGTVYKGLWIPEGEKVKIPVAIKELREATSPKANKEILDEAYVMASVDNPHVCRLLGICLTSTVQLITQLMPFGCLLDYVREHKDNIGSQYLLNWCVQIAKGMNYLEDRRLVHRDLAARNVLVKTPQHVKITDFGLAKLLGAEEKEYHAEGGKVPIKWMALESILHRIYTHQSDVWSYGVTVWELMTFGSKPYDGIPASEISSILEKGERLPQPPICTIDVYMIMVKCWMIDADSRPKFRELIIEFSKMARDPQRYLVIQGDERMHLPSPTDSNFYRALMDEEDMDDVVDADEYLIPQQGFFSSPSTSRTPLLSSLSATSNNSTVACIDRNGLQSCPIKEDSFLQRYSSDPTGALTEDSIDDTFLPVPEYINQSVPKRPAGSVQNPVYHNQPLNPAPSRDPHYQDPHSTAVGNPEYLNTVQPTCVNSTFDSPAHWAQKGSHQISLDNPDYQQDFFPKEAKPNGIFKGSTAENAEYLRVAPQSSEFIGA
T2 sequence (P04626 23-1255): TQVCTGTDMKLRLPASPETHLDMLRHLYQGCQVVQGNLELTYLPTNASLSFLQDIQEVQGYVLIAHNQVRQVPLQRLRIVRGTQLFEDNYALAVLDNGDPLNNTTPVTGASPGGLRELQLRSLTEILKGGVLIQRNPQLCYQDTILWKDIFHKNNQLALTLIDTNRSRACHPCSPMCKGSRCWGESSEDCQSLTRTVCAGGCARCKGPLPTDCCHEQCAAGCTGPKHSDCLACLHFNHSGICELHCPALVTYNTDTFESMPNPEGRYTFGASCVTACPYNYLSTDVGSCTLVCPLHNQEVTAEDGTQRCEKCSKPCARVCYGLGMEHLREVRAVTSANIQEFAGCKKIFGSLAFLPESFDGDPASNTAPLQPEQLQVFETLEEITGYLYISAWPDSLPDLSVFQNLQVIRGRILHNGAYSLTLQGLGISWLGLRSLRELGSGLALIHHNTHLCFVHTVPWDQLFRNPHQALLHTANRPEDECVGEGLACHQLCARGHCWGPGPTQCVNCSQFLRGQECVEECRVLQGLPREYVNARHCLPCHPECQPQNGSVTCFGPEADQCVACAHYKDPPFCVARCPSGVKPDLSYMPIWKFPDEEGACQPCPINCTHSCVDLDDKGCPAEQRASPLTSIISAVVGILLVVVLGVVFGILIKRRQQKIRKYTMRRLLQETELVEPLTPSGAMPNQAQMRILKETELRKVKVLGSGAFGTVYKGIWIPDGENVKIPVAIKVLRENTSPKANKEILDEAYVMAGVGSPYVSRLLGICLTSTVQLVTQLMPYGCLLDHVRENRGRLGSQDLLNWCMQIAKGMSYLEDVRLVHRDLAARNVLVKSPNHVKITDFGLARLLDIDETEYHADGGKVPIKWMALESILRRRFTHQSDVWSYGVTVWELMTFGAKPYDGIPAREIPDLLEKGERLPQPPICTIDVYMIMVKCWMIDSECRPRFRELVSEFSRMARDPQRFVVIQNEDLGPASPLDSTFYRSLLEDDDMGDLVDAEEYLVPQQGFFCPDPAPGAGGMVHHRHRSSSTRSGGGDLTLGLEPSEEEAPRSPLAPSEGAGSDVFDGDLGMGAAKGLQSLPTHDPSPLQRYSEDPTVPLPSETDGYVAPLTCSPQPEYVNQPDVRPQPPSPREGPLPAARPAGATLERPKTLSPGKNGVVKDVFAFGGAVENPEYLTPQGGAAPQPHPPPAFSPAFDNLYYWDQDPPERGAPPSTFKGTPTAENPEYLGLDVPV
Ba/F3 ERBB2 A775_G776insYVMA, sequence (P04626 with tags, fused parts or gaps DUP772-775): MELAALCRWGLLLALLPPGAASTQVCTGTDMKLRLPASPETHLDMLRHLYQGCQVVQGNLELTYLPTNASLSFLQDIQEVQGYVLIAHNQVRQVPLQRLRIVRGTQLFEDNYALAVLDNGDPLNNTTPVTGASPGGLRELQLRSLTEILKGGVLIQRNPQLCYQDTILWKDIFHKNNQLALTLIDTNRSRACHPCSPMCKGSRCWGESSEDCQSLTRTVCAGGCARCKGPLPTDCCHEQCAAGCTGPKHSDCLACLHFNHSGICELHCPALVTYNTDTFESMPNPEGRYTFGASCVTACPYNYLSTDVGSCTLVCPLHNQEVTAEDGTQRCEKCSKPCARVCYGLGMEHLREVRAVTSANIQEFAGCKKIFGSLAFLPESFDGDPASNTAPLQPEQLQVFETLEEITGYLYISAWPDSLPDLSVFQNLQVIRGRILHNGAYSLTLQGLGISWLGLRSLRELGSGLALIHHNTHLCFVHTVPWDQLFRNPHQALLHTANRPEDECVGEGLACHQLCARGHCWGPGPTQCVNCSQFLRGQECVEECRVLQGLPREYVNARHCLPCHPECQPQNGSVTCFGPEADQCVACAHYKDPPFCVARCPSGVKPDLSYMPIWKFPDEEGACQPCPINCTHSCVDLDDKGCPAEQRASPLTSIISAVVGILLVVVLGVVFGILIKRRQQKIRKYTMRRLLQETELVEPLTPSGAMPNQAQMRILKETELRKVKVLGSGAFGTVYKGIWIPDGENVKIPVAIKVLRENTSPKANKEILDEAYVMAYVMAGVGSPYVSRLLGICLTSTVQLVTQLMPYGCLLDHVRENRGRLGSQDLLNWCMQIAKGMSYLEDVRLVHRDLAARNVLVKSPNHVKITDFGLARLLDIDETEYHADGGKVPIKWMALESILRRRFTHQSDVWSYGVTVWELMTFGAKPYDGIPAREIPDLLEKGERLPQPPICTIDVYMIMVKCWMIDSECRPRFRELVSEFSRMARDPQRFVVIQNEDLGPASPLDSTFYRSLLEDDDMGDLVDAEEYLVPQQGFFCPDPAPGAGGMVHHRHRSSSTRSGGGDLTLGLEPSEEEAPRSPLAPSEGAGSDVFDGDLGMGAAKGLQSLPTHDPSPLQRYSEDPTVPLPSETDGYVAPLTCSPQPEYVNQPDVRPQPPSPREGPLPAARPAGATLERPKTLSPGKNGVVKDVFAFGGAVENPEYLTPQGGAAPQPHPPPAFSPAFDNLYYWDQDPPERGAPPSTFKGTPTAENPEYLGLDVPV

In the case of `Cc1cc(Nc2ncnc3cnc(N4CC(C)/C(=C\CN(C)C)C4=O)cc23)ccc1Oc1ccc2c(c1)nnn2C` (single isomer, unassigned) [Example S86, Enantiomer #2, (3E)-3-[2-(dimethylamino)ethylidene]-4-methyl-1-[4-({3-methyl-4-[(1-methyl-1,2,3-benzotriazol-5-yl)oxy]phenyl}amino)pyrido[3,4-d]pyrimidin-6-yl]pyrrolidin-2-one], the results for the IC50 in test [1] and in test [3] were > 10000 nM and 138 nM, respectively. In addition, the GI50 in test [2] was found to be 240 nM.

As to `Cc1cc(Nc2ncnc3cnc(N4CC(C)C(=CCN(C)C)C4=O)cc23)ccc1Oc1ccc2c(c1)ncn2C` (single isomer, unassigned) [Example S97, Enantiomer #1, 3-[2-(dimethylamino)ethylidene]-4-methyl-1-[4-({3-methyl-4-[(1-methyl-1,3-benzodiazol-5-yl)oxy]phenyl}amino)pyrido[3,4-d]pyrimidin-6-yl]pyrrolidin-2-one], the 50% inhibitory concentration (IC50) was > 10000 nM in test [1] and 41.3 nM in test [3]. Further, in test [2], the GI50 was 45.6 nM.

Take `Cc1cc(Nc2ncnc3cnc(N4CC(C)C(=CCN(C)C)C4=O)cc23)ccc1Oc1ccc2c(c1)ncn2C` (single isomer, unassigned) [Example S97, Enantiomer #2, 3-[2-(dimethylamino)ethylidene]-4-methyl-1-[4-({3-methyl-4-[(1-methyl-1,3-benzodiazol-5-yl)oxy]phenyl}amino)pyrido[3,4-d]pyrimidin-6-yl]pyrrolidin-2-one]: the half-inhibitory concentration (IC50) in test [1] amounted to 490 nM; in test [3] it was 21 nM. For the same compound, the GI50 in test [2] worked out at 4.12 nM.

In the case of `Cc1cc(Nc2ncnc3ccc(N4CC(C)C(=CCN(C)C)C4=O)nc23)ccc1Oc1ccn2ncnc2c1` (single isomer, unassigned) [Example S98, Enantiomer #1, 3-[2-(dimethylamino)ethylidene]-4-methyl-1-{4-[(3-methyl-4-{[1,2,4]triazolo[1,5-a]pyridin-7-yloxy}phenyl)amino]pyrido[3,2-d]pyrimidin-6-yl}pyrrolidin-2-one], the IC50 is 158 nM in test [1] and 11.9 nM in test [3]. Moreover, the GI50 in test [2] turned out to be 1.13 nM.

As for `Cc1cc(Nc2ncnc3ccc(N4CC(C)C(=CCN(C)C)C4=O)nc23)ccc1Oc1ccn2ncnc2c1` (single isomer, unassigned) [Example S98, Enantiomer #2, 3-[2-(dimethylamino)ethylidene]-4-methyl-1-{4-[(3-methyl-4-{[1,2,4]triazolo[1,5-a]pyridin-7-yloxy}phenyl)amino]pyrido[3,2-d]pyrimidin-6-yl}pyrrolidin-2-one], the results for the IC50 in test [1] and in test [3] were > 10000 nM and 26.4 nM, respectively. In addition, the GI50 in test [2] was 71.2 nM.

For the compound `Cc1cc(Nc2ncnc3ccc(N4C(=O)C(=CCN(C)C)C5CC54)nc23)ccc1Oc1ccn2ncnc2c1` (single isomer, unassigned) [Example S108, Enantiomer #1, 4-[2-(dimethylamino)ethylidene]-2-{4-[(3-methyl-4-{[1,2,4]triazolo[1,5-a]pyridin-7-yloxy}phenyl)amino]pyrido[3,2-d]pyrimidin-6-yl}-2-azabicyclo[3.1.0]hexan-3-one], the IC50 turned out to be 6680 nM in test [1] and 19.1 nM in test [3]. In addition, the GI50 in test [2] worked out at 54 nM.

`Cc1cc(Nc2ncnc3ccc(N4C(=O)C(=CCN(C)C)C5CC54)nc23)ccc1Oc1ccn2ncnc2c1` (single isomer, unassigned) [Example S108, Enantiomer #2, 4-[2-(dimethylamino)ethylidene]-2-{4-[(3-methyl-4-{[1,2,4]triazolo[1,5-a]pyridin-7-yloxy}phenyl)amino]pyrido[3,2-d]pyrimidin-6-yl}-2-azabicyclo[3.1.0]hexan-3-one]: the half-maximal inhibitory concentration (IC50) in test [1] is 175 nM; in test [3], 12.7 nM. Besides, in test [2], the GI50 amounted to 4.88 nM.

Consider `C=C1C(=O)N(c2ccc3ncnc(Nc4ccc(Oc5ccn6ncnc6c5)c(C)c4)c3c2)CC1COCCN(C)C` (single isomer, unassigned) [Example S111, Enantiomer #1, 1-(4-(4-([1,2,4]triazolo[1,5-a]pyridin-7-yloxy)-3-methylphenylamino)quinazolin-6-yl)-4-((2-(dimethylamino)ethoxy)methyl)-3-methylenepyrrolidin-2-one], for which the IC50 came to 274 nM in test [1] and 16.6 nM in test [3]. Moreover, the GI50 in test [2] stood at 18.4 nM.

For the compound `C=C1C(=O)N(c2ccc3ncnc(Nc4ccc(Oc5ccn6ncnc6c5)c(C)c4)c3c2)CC1COCCN(C)C` (single isomer, unassigned) [Example S111, Enantiomer #2, 1-(4-(4-([1,2,4]triazolo[1,5-a]pyridin-7-yloxy)-3-methylphenylamino)quinazolin-6-yl)-4-((2-(dimethylamino)ethoxy)methyl)-3-methylenepyrrolidin-2-one], the half-inhibitory concentration (IC50) was found to be 33.7 nM in test [1] and 18.2 nM in test [3]. The GI50 in test [2] was found to be 10.8 nM.

With `Cc1cc(Nc2ncnc3cnc(N4CC(C)/C(=C\CN(C)C)C4=O)cc23)c(F)cc1Oc1ccc2c(c1)nnn2C` (single isomer, unassigned) [Example S115, Enantiomer #1, (3E)-3-[2-(dimethylamino)ethylidene]-1-[4-({2-fluoro-5-methyl-4-[(1-methyl-1,2,3-benzotriazol-5-yl)oxy]phenyl}amino)pyrido[3,4-d]pyrimidin-6-yl]-4-methylpyrrolidin-2-one], the half-maximal inhibitory concentration (IC50) in test [1] was determined as 1000 nM; in test [3], 32 nM. Also, the GI50 in test [2] is 11.3 nM.

For `Cc1cc(Nc2ncnc3cnc(N4CC(C)/C(=C\CN(C)C)C4=O)cc23)c(F)cc1Oc1ccc2c(c1)nnn2C` (single isomer, unassigned) [Example S115, Enantiomer #2, (3E)-3-[2-(dimethylamino)ethylidene]-1-[4-({2-fluoro-5-methyl-4-[(1-methyl-1,2,3-benzotriazol-5-yl)oxy]phenyl}amino)pyrido[3,4-d]pyrimidin-6-yl]-4-methylpyrrolidin-2-one], the half-inhibitory concentration (IC50) in test [1] was > 10000 nM; in test [3], 273 nM. The GI50 in test [2] is 286 nM.
